Read-outs that look alike come from different tables or passages of the source.
Columns and labels:
[1] = test system: HIV-1 NL4-3 viral clone expressing Renilla luciferase; assay: microbe, parasite or virus in culture; type: cell-based
Summary of the method: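 MT-2 cells (2×10^4/well) were infected at MOI 0.027 with Renilla-luciferase HIV-1 NL4-3 alongside 3-fold compound dilutions for 96 h. Spread was read by EnduRen luminescence and supernatant infectivity on TZM-bl (48 h, MUG fluorescence). Mock-infected cytotoxicity used AlamarBlue. % inhibition versus solvent was fitted by 4-parameter logistic (0–100% constrained) for EC50/CC50.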

MT-2 cells = assay: Cytotoxicity assay (AlamarBlue) in mock infected MT-2 cells; type: cell-based, human
Method: (§1) The present assay was used to screen candidate antiviral compounds by quantification of virus spread and production over several rounds of infection in vitro. MT-2, a HIV-1 permissive human T-cell line, was seeded in microtiter plates and was simultaneously treated with serially diluted compound and inoculated with a HIV-1 NL4-3 viral clone engineered to express Renilla luciferase in place of Net Following treatment, the culture was incubated for 96 hours. After the incubation, media was collected and used to estimate relative infectivity on the indicator cell line, TZM-bl. Additionally, viral spread was quantified by measuring luciferase activity via a commercially available luciferase substrate. In parallel, MT-2 cells were seeded and inoculated with mock virus in the presence of serially diluted compound. Compound toxicity was quantified 96 hours after treatment with AlamarBlue.
(§2) MT-2 (NIH Aids reagent program 237) cells were grown and maintained in an incubator at 37° C. with 5% CO2 using a basal medium of RPMI-1640 supplemented with 10% FBS. Cells were seeded in 100 μl at 2×10^4 cells/well in white walled 96-well microtiter plates. Candidate compounds were 3-fold serially diluted in the appropriate solvent. Solvent without compound was used as a no drug reference. Cells were inoculated at a multiplicity of 0.027 with an HIV-1 NL4-3 virus stock engineered to express Renilla luciferase in place of Net Diluted virus stock was first added to serially diluted compound. Compound and virus were delivered to cells in an equal volume (100 μl) and treated cultures were returned to the incubator for 96 hours. In parallel, plates for cytotoxicity estimates were prepared in the same way except cells were plated in clear walled 96-well microtiter plates and were mock infected.
(§3) At 96 hours post treatment, 20 μl AlamarBlue proliferation reagent was added to 200 μl treated and mock infected cultures and incubated for 3 hours at 37° C. with 5% CO2 then read at 545, 590 nm on fluorescence plate reader (Biotek).
(§4) For all assays, data was imported into Accelrys Assay Explorer 3.3. In Assay Explorer, % inhibition (antiviral or cytotoxicity) was calculated using the solvent control as a reference by the following equation: 1−(SignalCompound/SignalReference). The % Inhibition and compound concentration data was fitted using the following 4-parameter logistic model (Assay Explorer model 42):
(§5) [formula] where X is compound concentration, Y is % inhibition, D is the maximum % Inhibition (constrained to 100%), C is IC50 value or inflection point, B is the hill slope, and A is the minimum % inhibition (constrained to 0%). The IC50 value is reported as the EC50 or CC50 depending on the assay endpoint. EC50 represents the effective concentration at which virus replication is inhibited by 50 percent. CC50 represents the concentration that results in the death of 50 percent of the host cells. The selectivity or therapeutic index (SI or TI), is the ratio of CC50 over EC50 and represents the relative effectiveness in inhibiting viral replication compared to inducing cell death.

[2] = as above; type: cell-based, human; conditions: human
Method: as §1, §2, §3, §4, §5

[3] = Human immunodeficiency virus 1, NL43, MT2, 96 h
[4] = mock infected MT-2 cells, 96 hours, AlamarBlue, read-out: CC50

SMILES	EC50 [1, 3] [µM]	CC50 (MT-2 cells; human, 96 h) [µM]	further results
COc1cc(C)c(/C=C/C2c3cc(OC)c(OCc4ccccc4)cc3CCN2C(=O)c2ccccn2)cc1OCc1ccccc1 (stereo not shown) [Example M, [6-benzyloxy-1-[(E)-2-(5-benzyloxy-4-methoxy-2-methyl-phenyl)vinyl]-7-methoxy-3,4-dihydro-1H-isoquinolin-2-yl]-(2-pyridyl)methanone]	2.09	100	–
COc1cc2c(cc1OCc1ccccc1)CCNC2/C=C/c1ccc2cn[nH]c2c1 (stereo not shown) [BT, 6-Benzyloxy-1-[(E)-2-(1H-indazol-6-yl)vinyl]-7-methoxy-1,2,3,4-tetrahydroisoquinoline]	–	–	EC50 ([1]; MT-2 cells infected with HIV-1 NL4-3, 96 hours, read-out: EC50): 0.613 µM; CC50 (MT-2 cells): 7.98 µM
COc1ncc(/C=C/C2NCCc3cc(OCc4ccccc4)c(OC)cc32)cn1 (stereo not shown) [DD, (E)-(benzyloxy)-7-methoxy-1-(2-(2-methoxypyrimidin-5-yl)vinyl)-1,2,3,4-tetrahydroisoquinoline]	11.1	100	–
COc1cc(C)c(/C=C/C2c3cc(OC)c(OCc4ccccc4)cc3CCN2C(N)=O)cc1OCc1ccccc1 (stereo not shown) [Example R, 6-benzyloxy-1-[(E)-2-(5-benzyloxy-4-methoxy-2-methyl-phenyl)vinyl]-7-methoxy-3,4-dihydro-1H-isoquinoline-2-carboxamide]	1.18	–	CC50 (MT-2 cells; [4]): 39.3 µM
COc1ccc(/C=C/C2NCCc3cc(OCc4ccccc4)c(OC)cc32)c(C(F)(F)F)c1 (stereo not shown) [Example Z, 6-benzyloxy-7-methoxy-1-[(E)-2-[4-methoxy-2-(trifluoromethyl)phenyl]vinyl]-1,2,3,4-tetrahydroisoquinoline]	0.35	–	CC50 (MT-2 cells; [4]): 100 µM
CCOCc1cc(/C=C/C2NCCc3cc(OCc4ccccc4)c(OC)cc32)ccc1OC (stereo not shown) [EP, (E)-6-(benzyloxy)-1-(3-(ethoxymethyl)-4-methoxystyryl)-7-methoxy-1,2,3,4-tetrahydroisoquinoline]	0.846	–	CC50 at 96 h [2]: 4 µM
COC(=O)N1CCc2cc(OCc3ccccc3)c(OC)cc2C1/C=C/c1cc(OC)c(OC)cc1C (stereo not shown) [Example I, Methyl 6-benzyloxy-1-[(E)-2-(4,5-dimethoxy-2-methyl-phenyl)vinyl]-7-methoxy-3,4-dihydro-1H-isoquinoline-2-carboxylate]	4.48	100	–
COc1cc(C)c(/C=C/C2c3cc(OC)c(OCc4ccccc4)cc3CCN2C(=O)c2cnccn2)cc1OCc1ccccc1 (stereo not shown) [Example H, [6-Benzyloxy-1-[(E)-2-(5-benzyloxy-4-methoxy-2-methyl-phenyl)vinyl]-7-methoxy-3,4-dihydro-1H-isoquinolin-2-yl]-pyrazin-2-yl-methanone]	4.48	100	–
COc1cc(C)c(/C=C/C2c3cc(OC)c(OCc4ccccc4)cc3CCN2C(=O)c2cccnc2)cc1OCc1ccccc1 (stereo not shown) [Example T, [6-benzyloxy-1-[(E)-2-(5-benzyloxy-4-methoxy-2-methyl-phenyl)vinyl]-7-methoxy-3,4-dihydro-1H-isoquinolin-2-yl]-(3-pyridyl)methanone]	0.93	100	–
COc1cc(C)c(/C=C/C2c3cc(OC)c(OCc4ccccc4)cc3CCN2C(=O)c2cccc(N)n2)cc1OCc1ccccc1 (stereo not shown) [Example F, (6-Amino-2-pyridyl)-[6-benzyloxy-1-[(E)-2-(5-benzyloxy-4-methoxy-2-methyl-phenyl)vinyl]-7-methoxy-3,4-dihydro-1H-isoquinolin-2-yl]methanone]	5.05	100	–
COc1cc(C(C)(C)C)c(/C=C/C2NCCc3cc(OCc4ccccc4)c(OC)cc32)cc1OCc1ccccc1 (stereo not shown) [AS, 6-Benzyloxy-1-[(E)-2-(5-benzyloxy-2-tert-butyl-4-methoxy-phenyl)vinyl]-7-methoxy-1,2,3,4-tetrahydroisoquinoline]	4.22	–	CC50 (MT-2 cells; [4]): 5.36 µM
COc1cc(C)c(/C=C/C2c3cc(OC)c(OCc4ccccc4)cc3CCN2C(=O)c2ccnc(N)c2)cc1OCc1ccccc1 (stereo not shown) [Example N, (2-amino-4-pyridyl)-[6-benzyloxy-1-[(E)-2-(5-benzyloxy-4-methoxy-2-methyl-phenyl)vinyl]-7-methoxy-3,4-dihydro-1H-isoquinolin-2-yl]methanone]	2.03	100	–
COc1cc(C)c(/C=C/C2c3cc(OC)c(OCc4ccccc4)cc3CCN2C(=O)c2cccnc2N)cc1OCc1ccccc1 (stereo not shown) [Example K, (2-Amino-3-pyridyl)-[6-benzyloxy-1-[(E)-2-(5-benzyloxy-4-methoxy-2-methyl-phenyl)vinyl]-7-methoxy-3,4-dihydro-1H-isoquinoline-2-yl]methanone]	2.88	100	–
COc1cc(C)c(/C=C/C2c3cc(OC)c(OCc4ccccc4)cc3CCN2C(=O)c2ccc(N)nc2)cc1OCc1ccccc1 (stereo not shown) [Example P, (6-amino-3-pyridyl)-[6-benzyloxy-1-[(E)-2-(5-benzyloxy-4-methoxy-2-methyl-phenyl)vinyl]-7-methoxy-3,4-dihydro-1H-isoquinolin-2-yl]methanone]	1.69	100	–

Source: US10195189B2, “2-phenethenyltetrahydro isoquinolines useful as anti-HIV compounds” (priority 2014, dated 2019)
